Data taken from PubChem BioAssay AID1918954 (Molecular Pharmacology Branch, DTP, NCI, 2023).

System: MDA-MB-468 complex spheroids with HUVEC/MSC, viability
Experiment: Anticancer human tumor MDA-MB-468 cell line growth inhibition;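 further: spheroids exposed to agents for seven days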;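 on viability, T/C: 100% = DMSO vehicle control viability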
Conditions: for IC50: curve of first compound; for viability, T/C: stronger effect = lower value
Text: Multicellular complex tumor spheroid response to LSD1 Inhibitor Iadademstat in combination with a variety of drugs and investigational agents in selected tumor cell lines
The current study was undertaken to assess response to LSD1 inhibitors in combination with standard-of-care drugs and investigational agents in solid tumor complex spheroid models as well as in the K-562 leukemia. Complex spheroids include a stromal component modeled by human endothelial cells (HUVEC) and fibroblasts modeled by human mesenchymal stem cells (MSCs). The concentration ranges selected for each drug and investigational agent were based upon clinically achievable concentrations if the clinical Cmax of the agent was known.
Compounds. The drugs and investigational agents used in this study are listed on Table 1. All of the agents used, including staurosporine (NSC755774) and gemcitabine (NSC613327), were obtained from the Developmental Therapeutics Program, NCI. FDA-approved anticancer drugs are available from the NCI at http://dtp.nci.nih.gov/branches/dscb/oncology_drugset_explanation.html. Drugs and investigational agents were >95% pure by proton nuclear magnetic resonance (NMR) and liquid chromatography/mass spectrometry (LC/MS). Stock solutions were prepared at 400x in DMSO, stored at -70 degrees C, and diluted in fresh medium prior to their use. The final concentration of DMSO in cell culture wells never exceeded 0.25% (v/v). The FDA-approved anticancer drug set is available from the Developmental Therapeutics Program at https://dtp.cancer.gov/organization/dscb/obtaining/available_plates.htm. All drugs and investigational agents were tested over a range starting from a high concentration at or near the clinical Cmax and decreasing in half-log increments. If the clinical Cmax for an agent had not been determined, the highest concentration tested was 10 microM.
Cell Lines. The patient-derived cancer cell (PDC) lines: 292921-168-R-J2-PDC, K24384-001-R-PDC, and 521955-158-R2-J5-PDC pancreatic carcinomas, 556581-035-R-J1 ovarian carcinoma, 324938-238-R-J1-PDC, 855422-203-R-J1-PDC and 883617-216-R-J1-PDC urothelial bladder carcinomas, 743489-274-T-PDC renal cell carcinoma, 138582-R-J1 Merkel cell tumor, K60290-347-R-J1 and K57222-313-R-J1-PDC glioblastomas, 653999-131-R-J2-PDC, LG0703-F948-PDC, and 349418-098-R-PDC non-small cell lung carcinomas, 885512-296-R-J2-PDC, 171881-019-R-J1-PDC breast carcinomas and 186277-243-T-J2-PDC and 233499-124-R-J2-PDC colon carcinomas were obtained from the NCI Patient-Derived Models Repository (PDMR, https://pdmr.cancer.gov). The established cell lines NCI/ADR-RES (RRID:CVCL_14520 and OVCAR-5 (RRID:CVCL_1628) ovarian carcinomas, 786-O (RRID:CVCL_1051) and A498 (RRID:CVCL_A498) renal cell carcinoma, NCI-H211 (ATCC, cat. CRL-5824; RRID:CVCL_1529), NCI-H196 (ATCC, cat. CRL-5823, RRID:CVCL_1509), SW 1271 (ATCC, cat. CRL-2177, RRID:CVCL_1716) and NCI-H1876 (ATCC, cat. CRL-5902, RRID:CVCL_1503) small cell lung carcinomas, MDA-MB-231 (RRID:CVCL_0062) and MDA-MB-468 (RRID:CVCL_0419)breast carcinomas (10-12). Pooled donor human umbilical vein endothelial cells (HUVEC, Lonza, cat. CC-2519) and human mesenchymal stem cells (hMSC, Lonza, cat. PT-2501) were purchased from Lonza (Walkersville, MD).
Cell Culture. All cells were maintained in an incubator at 37 degrees C and 5% CO2 with 95% humidity. The PDC lines were cultured according to standard operating procedures established by the NCI PDMR (https://pdmr.cancer.gov). Briefly all PDCs were thawed and cultured in Matrigel-coated flasks prepared with a working solution of 1X Ham's F-12 nutrient mix, without supplementation (Invitrogen, Waltham, MA, cat. 11765054), 100 U/mL penicillin-streptomycin (Invitrogen, cat. 15140122), and 2.5% Matrigel (Corning Inc., Corning, NY, cat. 354248) for the first three passages. […]

[1] = second compound 0.1 µM, first compound 0.00316 µM
[2] = second compound 0.1 µM, first compound 0.01 µM
[3] = second compound 0.1 µM, first compound 0.0316 µM
[4] = second compound 0.1 µM, first compound 0.1 µM
[5] = second compound 0.316 µM, first compound 0.00316 µM
[6] = second compound 0.316 µM, first compound 0.01 µM
[7] = second compound 0.316 µM, first compound 0.0316 µM
[8] = second compound 0.316 µM, first compound 0.1 µM
[9] = second compound 1 µM, first compound 0.00316 µM
[10] = second compound 1 µM, first compound 0.01 µM
[11] = second compound 1 µM, first compound 0.0316 µM
[12] = second compound 1 µM, first compound 0.1 µM
[13] = second compound 3.16 µM, first compound 0.00316 µM
[14] = second compound 3.16 µM, first compound 0.01 µM
[15] = second compound 3.16 µM, first compound 0.0316 µM
[16] = second compound 3.16 µM, first compound 0.1 µM
[17] = second compound 10 µM, first compound 0.00316 µM
[18] = second compound 10 µM, first compound 0.01 µM
[19] = second compound 10 µM, first compound 0.0316 µM
[20] = second compound 10 µM, first compound 0.1 µM

Compound: CC[C@@]1(O)C(=O)OCc2c1cc1n(c2=O)Cc2cc3c(CN(C)C)c(O)ccc3nc2-1 + NC1CC1c1ccc(-c2cccc(O)c2)cc1
- IC50 (second compound 0.1 µM): 1.32 nM
- IC50 (second compound 0.316 µM): 1.2 nM
- IC50 (second compound 1 µM): 1.15 nM
- IC50 (second compound 3.16 µM): 1.05 nM
- IC50 (second compound 10 µM): 0.731 nM
- viability, T/C (second compound 0.1 µM, first compound 0.000316 µM): 95.6%
- viability, T/C (second compound 0.1 µM, first compound 0.001 µM): 61.8%
- viability, T/C [1]: 12.6%
- viability, T/C [2]: 7.83%
- viability, T/C [3]: 4.57%
- viability, T/C [4]: 4.01%
- viability, T/C (second compound 0.316 µM, first compound 0.000316 µM): 97.4%
- viability, T/C (second compound 0.316 µM, first compound 0.001 µM): 57.1%
- viability, T/C [5]: 12.2%
- viability, T/C [6]: 7.26%
- viability, T/C [7]: 4.33%
- viability, T/C [8]: 3.89%
- viability, T/C (second compound 1 µM, first compound 0.000316 µM): 90.9%
- viability, T/C (second compound 1 µM, first compound 0.001 µM): 55.3%
- viability, T/C [9]: 12.1%
- viability, T/C [10]: 7.25%
- viability, T/C [11]: 4.02%
- viability, T/C [12]: 3.43%
- viability, T/C (second compound 3.16 µM, first compound 0.000316 µM): 98%
- viability, T/C (second compound 3.16 µM, first compound 0.001 µM): 51.8%
- viability, T/C [13]: 12.3%
- viability, T/C [14]: 6.86%
- viability, T/C [15]: 3.9%
- viability, T/C [16]: 2.97%
- viability, T/C (second compound 10 µM, first compound 0.000316 µM): 67.6%
- viability, T/C (second compound 10 µM, first compound 0.001 µM): 43.5%
- viability, T/C [17]: 13.9%
- viability, T/C [18]: 7.24%
- viability, T/C [19]: 4.44%
- viability, T/C [20]: 3.53%

Compound: COc1cc(C2c3cc4c(cc3C(OC3OC5COC(C)OC5C(O)C3O)C3COC(=O)C23)OCO4)cc(OC)c1O (stereo not given) + NC1CC1c1ccc(-c2cccc(O)c2)cc1
- IC50 (second compound 0.1 µM): 57.7 nM
- IC50 (second compound 0.316 µM): 50.8 nM
- IC50 (second compound 1 µM): 45.5 nM
- IC50 (second compound 3.16 µM): 47.2 nM
- IC50 (second compound 10 µM): 21 nM
- viability, T/C (second compound 0.1 µM, first compound 0.00949 µM): 88.3%
- viability, T/C (second compound 0.1 µM, first compound 0.03 µM): 79.1%
- viability, T/C (second compound 0.1 µM, first compound 0.0949 µM): 27.5%
- viability, T/C (second compound 0.1 µM, first compound 0.3 µM): 13%
- viability, T/C (second compound 0.1 µM, first compound 0.949 µM): 7.49%
- viability, T/C (second compound 0.1 µM, first compound 3 µM): 3.87%
- viability, T/C (second compound 0.316 µM, first compound 0.00949 µM): 107%
- viability, T/C (second compound 0.316 µM, first compound 0.03 µM): 69.9%
- viability, T/C (second compound 0.316 µM, first compound 0.0949 µM): 26%
- viability, T/C (second compound 0.316 µM, first compound 0.3 µM): 11.5%
- viability, T/C (second compound 0.316 µM, first compound 0.949 µM): 7.32%
- viability, T/C (second compound 0.316 µM, first compound 3 µM): 3.63%
- viability, T/C (second compound 1 µM, first compound 0.00949 µM): 90%
- viability, T/C (second compound 1 µM, first compound 0.03 µM): 64.2%
- viability, T/C (second compound 1 µM, first compound 0.0949 µM): 24.7%
- viability, T/C (second compound 1 µM, first compound 0.3 µM): 11.3%
- viability, T/C (second compound 1 µM, first compound 0.949 µM): 6.82%
- viability, T/C (second compound 1 µM, first compound 3 µM): 3.4%
- viability, T/C (second compound 3.16 µM, first compound 0.00949 µM): 89.8%
- viability, T/C (second compound 3.16 µM, first compound 0.03 µM): 68.7%
- viability, T/C (second compound 3.16 µM, first compound 0.0949 µM): 21%
- viability, T/C (second compound 3.16 µM, first compound 0.3 µM): 11%
- viability, T/C (second compound 3.16 µM, first compound 0.949 µM): 6.58%
- viability, T/C (second compound 3.16 µM, first compound 3 µM): 3.35%
- viability, T/C (second compound 10 µM, first compound 0.00949 µM): 68.2%
- viability, T/C (second compound 10 µM, first compound 0.03 µM): 42.8%
- viability, T/C (second compound 10 µM, first compound 0.0949 µM): 15.8%
- viability, T/C (second compound 10 µM, first compound 0.3 µM): 14.5%
- viability, T/C (second compound 10 µM, first compound 0.949 µM): 8.05%
- viability, T/C (second compound 10 µM, first compound 3 µM): 3.42%

Compound: Nc1ncn(C2CC(O)C(CO)O2)c(=O)n1 (stereo not given) + NC1CC1c1ccc(-c2cccc(O)c2)cc1
- IC50 (second compound 0.1 µM): 16.4 nM
- IC50 (second compound 0.316 µM): 19.3 nM
- IC50 (second compound 1 µM): 17.9 nM
- IC50 (second compound 3.16 µM): 15 nM
- IC50 (second compound 10 µM): 9.07 nM
- viability, T/C [1]: 87.3%
- viability, T/C [2]: 66.9%
- viability, T/C [3]: 27.2%
- viability, T/C [4]: 12.3%
- viability, T/C (second compound 0.1 µM, first compound 0.316 µM): 9.59%
- viability, T/C (second compound 0.1 µM, first compound 1 µM): 7.38%
- viability, T/C [5]: 89.9%
- viability, T/C [6]: 74.8%
- viability, T/C [7]: 31.2%
- viability, T/C [8]: 11.8%
- viability, T/C (second compound 0.316 µM, first compound 0.316 µM): 8.68%
- viability, T/C (second compound 0.316 µM, first compound 1 µM): 6.69%
- viability, T/C [9]: 92.4%
- viability, T/C [10]: 72.2%
- viability, T/C [11]: 27.8%
- viability, T/C [12]: 12.6%
- viability, T/C (second compound 1 µM, first compound 0.316 µM): 7.79%
- viability, T/C (second compound 1 µM, first compound 1 µM): 7.05%
- viability, T/C [13]: 90.1%
- viability, T/C [14]: 64%
- viability, T/C [15]: 24.4%
- viability, T/C [16]: 11.6%
- viability, T/C (second compound 3.16 µM, first compound 0.316 µM): 8.23%
- viability, T/C (second compound 3.16 µM, first compound 1 µM): 6.83%
- viability, T/C [17]: 69%
- viability, T/C [18]: 48.1%
- viability, T/C [19]: 25.1%
- viability, T/C [20]: 11.4%
- viability, T/C (second compound 10 µM, first compound 0.316 µM): 7.65%
- viability, T/C (second compound 10 µM, first compound 1 µM): 6.35%
